Measured values: EP2204099A1, “Methods for producing pure amino acid chelate complexes, and uses thereof” (Viva Pharmaceuticals Inc., priority 2008, dated 2010)

Tests used:
[1] = system: CTX-induced immunodeficient mice; experiment: Clearance of charcoal particles (carbon clearance test) in CTX-induced immunodeficient mice; assay type: in vivo; details: 17 mg/kg per os; CTX 50 mg/kg i.p.; x±sd, n=10
Method: A total of 70 mice were divided into 7 treatment groups: Vehicle; CTX (cyclophosphamide) + Vehicle; CTX+ZnSO4 (17mg mg/kg); CTX+Zinc chelate (Zn:2Asp:2Lys) (57 mg/kg); CTX+Zinc chelate (Zn:2Asp:2Lys) (114 mg/kg); CTX+Zinc chelate (Zn:2Asp:2Lys) (228 mg/kg); and CTX+Zinc chelate (Zn:2Asp:2Lys) (456 mg/kg). The mice were administrated per os at least 16 days before experimentation. CTX was given as an intraperitoneal injection at the dose of 50 mg/kg every day for 4 days after 9 days of drug administration.
Sixty minutes after the last drug administration, mice were injected with 1:3 diluted Indian ink 10 ml/kg. At 1 min (T1) and 11 min (T2), bold 40µl was taken from retroocular venous plexus and resolved in 0.1 % Na2CO3 solution 4 ml. The absorbance (OD) was measured at 600 nm by a 721 spectrophotometer. The clearance rate K and clearance index a were calculated: K = (lgOD1-lgOD2)/T2 -T1 [formula] α = K^(1/3) × W/(liver weight+spleen weight) [formula] (W: weight of mouse)

[2] = system: CTX-induced immunodeficient mice; experiment: Serum hemolysin test in CTX-induced immunodeficient mice; assay type: in vivo; details: 17 mg/kg per os; SRBC-immunized; CTX 50 mg/kg i.p.; x±sd, n=10
Method: A total of 70 mice were divided into […] treatment groups: Vehicle; CTX (cyclophosphamide) + Vehicle; CTX+Zinc Sulphate (17mg mg/kg); CTX+Zinc chelate (Zn:[…]:[…]) (57 mg/kg); CTX+Zinc chelate (Zn:[…]:[…]) (114 mg/kg); CTX+Zinc chelate (Zn:[…]:[…]) (228 mg/kg); CTX+Zinc chelate (Zn:[…]:[…]) (456 mg/kg). The mice were administrated per os at least 16 days before experimentation. After 8 days of drug or vehicle administration, all mice were immunized with an intraperitioneal injection of 0.2 ml of 20% SRBC (sheep red blood cell) in saline. CTX was given intraperitoneal injection at the dose of 50 mg/kg every day for 4 days after 9 days of drug administration. Sixty minutes after the last drug administration, blood was collected by retroorbital venous plexus puncture, and then centrifuged (2000 r/min 5 min). Sheep red cell suspension 0.5 ml (5% sheep red cell in saline) was added to 1 ml diluted sera (1:500 dilution with saline), followed by 1 ml diluted guinea pig plasma (10% plasma in saline) in sequence. For negative controls, the durg waqs substituted with saline. The samples and controls were incubated for 10 min at 37°C, and then immersed in an ice-water bath (0°C) to stop the reaction. […] The absorbance for each tube was recorded and the 50% hemolytic dose (HC50) was calculated as follows: Sample HC50 = sample absorbance 50% hemolytic absorbance x dilution factors.

Zinc Sulphate
α (clearance index) [1]: 4.2988±1.4347 | HC50 (serum hemolysin) [2]: 141.7±29.5
